pEC50: −log10 of the molar value.
Molecular target: T1, MdesOR115 (with MdesOrco; HEK293/TMO/MdesOR115) (Mayetiola destructor, UniProt A0A1D8GZG1)
T1 construct: with Odorant receptor coreceptor
T1 sequence (A0A1D8GZG1 1-412): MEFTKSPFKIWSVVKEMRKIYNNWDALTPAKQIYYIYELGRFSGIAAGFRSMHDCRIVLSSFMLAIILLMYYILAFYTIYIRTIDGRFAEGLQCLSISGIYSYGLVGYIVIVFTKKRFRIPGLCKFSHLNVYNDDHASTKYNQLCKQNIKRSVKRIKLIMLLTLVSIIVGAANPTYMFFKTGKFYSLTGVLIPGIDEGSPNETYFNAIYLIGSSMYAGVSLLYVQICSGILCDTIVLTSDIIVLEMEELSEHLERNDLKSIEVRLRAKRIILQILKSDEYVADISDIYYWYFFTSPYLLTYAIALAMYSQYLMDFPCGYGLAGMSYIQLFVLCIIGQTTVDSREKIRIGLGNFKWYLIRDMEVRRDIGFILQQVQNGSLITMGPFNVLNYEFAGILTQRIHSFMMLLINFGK
T1 sequence (A0A1D8GZG0 1-466 partner): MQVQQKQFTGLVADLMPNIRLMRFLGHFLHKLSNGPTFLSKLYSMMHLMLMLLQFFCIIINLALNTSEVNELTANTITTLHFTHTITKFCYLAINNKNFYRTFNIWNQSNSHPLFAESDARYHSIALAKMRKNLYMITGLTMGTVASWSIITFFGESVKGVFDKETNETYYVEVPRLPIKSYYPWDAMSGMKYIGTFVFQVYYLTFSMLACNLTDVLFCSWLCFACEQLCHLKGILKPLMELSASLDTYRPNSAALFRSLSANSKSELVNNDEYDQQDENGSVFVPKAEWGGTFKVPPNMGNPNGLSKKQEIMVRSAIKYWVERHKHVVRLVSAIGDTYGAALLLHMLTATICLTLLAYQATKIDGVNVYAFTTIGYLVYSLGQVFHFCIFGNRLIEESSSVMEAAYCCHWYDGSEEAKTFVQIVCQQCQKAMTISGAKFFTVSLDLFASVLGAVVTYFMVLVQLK
Experiment: fluorescent calcium assay, HEK293 cells, dose-response
Assay type: cell-based

pEC50: 5.43 to 5.69
SMILES: CC/C=C/C=C/CCCCC[C@H](C)OC(C)=O [2S-8E,10E-13:OAc, (2S,8E,10E)-8,10-tridecadien-2-yl acetate]
